Experiments:
[1] = titration curve of pyruvate optical sensor (concentration gradient pyruvate detection); format: binding; conditions: for change of the ratio of fluorescence intensity at 528 nm after excitation at 420 nm and at 485 nm: pyruvate concentration gradient; for Kd: ratio of fluorescence at 528 nm, excitation 420 nm and 485 nm, read-out: Kd (binding constant)
Procedure: 6. Take 100 μl of 1 μM protein solution, incubate at 37° C. for 5 minutes, add pyruvate for titration, and measure the fluorescence intensity of the protein emitted at 528 nm after fluorescence excitation at 485 nm. The fluorescence excitation and emission measurement of the samples were completed by a multifunctional fluorescence microplate reader.

[2] = fluorescence spectra of purified sensor treated with 0 mM and 10 mM pyruvate; format: biochemical; conditions: 10 minutes
Procedure: 7. Take 100 μl of 1 μM protein solution, incubate at 37° C. for 5 minutes, add pyruvate, and measure the absorption and fluorescence spectra of the protein. The determination of the absorption spectrum and fluorescence spectrum of the sample is completed by a spectrophotometer and a fluorescence spectrophotometer.
Exemplarily, after the purified pyruvate optical sensor PdhR(96-254)-192/194-M194V-cpYFP was treated with 0 mM and 10 mM pyruvate for 10 minutes, respectively, the fluorescence spectrum was detected using a fluorescence spectrophotometer.
Determination of excitation spectra: Excitation spectra were recorded with an excitation range of 350 nm to 500 nm and an emission wavelength of 530 nm, with readings every 5 nm.
Determination of emission spectra: excitation spectra were recorded with an fixed excitation wavelength of 420 nm and 490 nm and an emission range of 505-600 nm, read every 5 nm.

[3] = specificity of purified pyruvate optical sensors; format: biochemical; conditions: purified sensor

Q: For “192/195: optical sensor with cpYFP inserted at site 192/195 of PdhR(96-254)”, which “change of the ratio of fluorescence intensity at 528 nm after excitation at 420 nm and at 485 nm” value (shortened to “change of the ratio … at 485 nm”) [1] is on record?
A: Its value is 8.3 times.

Q: What about the Kd [1] of the same substance?
A: Its Kd is 19900 µM.

Q: For “141/143-S190P/R191H/R192P: cpYFP at 141/143 of PdhR(96-254), mutations S190P/R191H/R192P”, which “change of the ratio … at 485 nm” value [1] is on record?
A: Its value is 3.2 times.

Q: And the Kd [1]?
A: Its Kd is 84 µM.

Q: With “192/194-M194V: cpYFP at 192/194 of PdhR(96-254), mutation M194V (family SEQ ID NO: 22; coding sequence SEQ ID NO: 31)” as the substance, how does the “fluorescence intensity excited at 420 nm relative to 0 mM pyruvate” value [2] read?
A: The value was 0.6 times.

Q: And the “fluorescence intensity excited at 490 nm relative to 0 mM pyruvate” value [2]?
A: The value was 5.8 times.

Q: What about the “change of the ratio … at 485 nm” value [1] of the same substance?
A: Its value is 9.7 times.

Q: And the Kd [1]?
A: The Kd was 475 µM.

Q: What about the specificity [3] of the same substance?
A: The specificity was “good specificity”.

Q: With “141/143-S 190L/R191V: cpYFP at 141/143 of PdhR(96-254), mutations S190L/R191V” as the substance, how does the “change of the ratio … at 485 nm” value [1] read?
A: Its value is 4.2 times.

Q: And the Kd [1]?
A: The Kd was 185 µM.

Q: Which “change of the ratio … at 485 nm” value [1] does the source give for “141/143-S190R/R191S/R192P: cpYFP at 141/143 of PdhR(96-254), mutations S190R/R191S/R192P” here?
A: The value was 3.1 times.

Q: What about the Kd [1] of the same substance?
A: The Kd was 158 µM.

Q: What does the source list for “141/143-R191S/R192T: cpYFP at 141/143 of PdhR(96-254), mutations R191S/R192T”?
A: change of the ratio of fluorescence intensity at 528 nm after excitation at 420 nm and at 485 nm [1]: 3.9 times; Kd [1]: 164 µM

Q: For “PdhR(96-254)-192/194-M194V/S190D/R191Y/R192T-cpYFP: cpYFP at 192/194 of PdhR(96-254), mutations M194V/S190D/R191Y/R192T”, which specificity [3] is on record?
A: Its specificity is “good specificity”.

Q: Which “change of the ratio … at 485 nm” value [1] does the source give for “141/143-S190T/R191Q/R192E: cpYFP at 141/143 of PdhR(96-254), mutations S190T/R191Q/R192E” here?
A: Its value is 2.7 times.

Q: And the Kd [1]?
A: Its Kd is 186 µM.

Q: Which results are given for “141/143: optical sensor with cpYFP inserted at site 141/143 of PdhR(96-254)”?
A: change of the ratio of fluorescence intensity at 528 nm after excitation at 420 nm and at 485 nm [1]: 2.0 times; Kd [1]: 28 µM; specificity [3]: good specificity

Q: What does the source list for “192/194-M194V-S190E/R191N/R192D: cpYFP at 192/194 of PdhR(96-254), mutations M194V/S190E/R191N/R192D”?
A: change of the ratio of fluorescence intensity at 528 nm after excitation at 420 nm and at 485 nm [1]: 13.1 times; Kd [1]: 1070 µM; specificity [3]: good specificity
